# Measured values as given in patent US20240082273A1, “NEUROKININ INHIBITORS SUCH AS APREPITANT FOR TREATING NON SMALL CELL LUNG CARCINOMA OR BREAST CANCER WITHOUT MUTATIONS” (priority 2020, published 2024).
# Key:
# Assay type in all cases: cell-based, human
# Conditions in all cases: 48 hours
# [1] = tested on: breast cancer cell lines ER+/PR+/HER2− (MCF7, T47D); assay: MTT proliferation, breast cancer cell lines ER+/PR+/HER2−
# Experimental: All cells were cultured in wells under vendor-recommended conditions and exposed to different concentrations of aprepitant for 48 hours. In each case a group of wells of cells were used to which no treatment was applied and which were considered as controls. At 48 hours the number of cells was measured. To measure cell viability, the cytotoxicity of drugs in culture was evaluated using the 3-(4,5-Dimethyl-2-thiazolyl)-2,5-diphenyl-2H-tetrazolium bromide (MTT) reduction assay. This assay assesses cell viability through the indirect measurement of the activity of reductases that convert yellow soluble MTT into purple insoluble formazan salts. As MTT can only be reduced when these enzymes are active, the reaction is used as an indicator of the cell metabolic competence and, therefore, of viability. A variable number of cells (depending on the cell line) were seeded in 96 multi-well plates and grown during 24 hours. The following day, the culture medium was aspirated and fresh culture medium with the drug dissolved was added to the wells. After 24 hours or 48 hours cell viability was measurement by adding 10 μl of a 5 mg/ml MTT solution (M5655; Sigma-Aldrich) and 100 μl of HCl 0.01M-SDS 10% solution 4 hours later. After 24 hours, the absorbance was measured at 595 nm, using a multi-well plate reader (iMark, Bio-rad). Each condition was tested 5 times, obtaining 5 values of absorbance. All sample measurements were corrected using the blank (culture medium without cells) mean absorbance value, and normalized to positive control to determinate relative cell viability for each condition at 24 and 48 hours.
# [2] = tested on: H520; assay: MTT proliferation, H520
# From the text: (§1) EGFR, ALK and ROS1 are key molecular factors that may be used to determine pathological classification, prognosis, therapeutics and behaviour in patients with lung cancer. EGFR, ALK and ROS1 are biomarkers routinely analysed in the clinical practice of the management of patients with NSCLC. NSCLC with molecular profile EGFR-/ALK-/ROS1- presents a better response to treatment with the NK1 inhibitor aprepitant, compared to lung cancer with different profiles (in particular, EGFR+/ALK-/ROS1- and EGFR-/ALK+/ROS1-, in which EGFR and ALK respectively contain mutations relative to their wild type gene). Commercial lines of lung cancer were used as shown in Table 2 together with their molecular profile. The molecular profile of the cancer cell lines was determined by sequencing and can be consulted in the Cancer Cell Line Encyclopaedia database of public access available at the url: https://portals.broadinstitute.org/ccle All cells were cultured in wells under vendor-recommended conditions and exposed to different concentrations of aprepitant for 48 hours. In each case a group of wells of cells were used to which no treatment was applied and which were considered as controls. At 48 hours the number of cells was measured. Eight cell lines of human were used for the study of NK1 inhibitors (Table 3). All of them were maintained in culture in their respective culture media (Gibco,Thermo Fisher Scientific) supplemented with 10% foetal bovine serum (FBS) (Gibco, Thermo Fisher Scientific), 2 mM L-Glutamine (Gln) (Sigma-Aldrich, Merk), and […] and […] Gibco, Thermo Fisher Scientific) in a humidified incubator at 37° C. and 5% CO2. Cell culture media used are Dulbecco's Modified Eagle Medium (DMEM), and RPMI Medium 1640 (RPMI-1640). To measure cell viability, the cytotoxicity of drugs in culture was evaluated using the 3-(4,5-Dimethyl-2-thiazolyl)-2,5-diphenyl-2H-tetrazolium bromide (MTT) reduction assay. This assay assesses cell viability through the indirect measurement of the activity of reductases that convert yellow soluble MTT into purple insoluble formazan salts. As MTT can only be reduced when these enzymes are active, the reaction is used as an indicator of the cell metabolic competence and, therefore, of viability. A variable number of cells (depending on the cell line) were seeded in 96 multi-well plates and grown during 24 hours. The following day, the culture medium was aspirated and fresh culture medium with the drug dissolved was added to the wells. After 24 hours or 48 hours cell viability was measurement by adding 10 μl of a 5 mg/ml MTT solution (M5655; Sigma-Aldrich) and 100 μl of HCl 0.01M-SDS 10% solution 4 hours later. After 24 hours, the absorbance was measured at 595 nm, using a multi-well plate reader (iMark, Bio-rad). Each condition was tested 5 times, obtaining 5 values of absorbance. All sample measurements were corrected using the blank (culture medium without cells) mean absorbance value, and normalized to positive control to determinate relative cell viability for each condition at 24 and 48 hours.
# [3] = tested on: H358; assay: MTT proliferation, H358
# From the text: as §1
# [4] = tested on: H460; assay: MTT proliferation, H460
# From the text: as §1
smiles,measurement,setting,value
C[C@@H](O[C@H]1OCCN(Cc2nc(=O)[nH][nH]2)[C@H]1c1ccc(F)cc1)c1cc(C(F)(F)F)cc(C(F)(F)F)c1 [Aprepitant],Mean proliferation,[1]; aprepitant 0.3 μM,102.47
same,Mean proliferation,[1]; aprepitant 1 μM,99.16
same,Mean proliferation,[1]; aprepitant 3 μM,106.96
same,Mean proliferation,[1]; aprepitant 10 μM,81.55
same,Mean proliferation,[1]; aprepitant 20 μM,67.98
same,Mean proliferation,[1]; aprepitant 30 μM,54.13
same,Mean proliferation,[1]; aprepitant 40 μM,35.22
same,Mean proliferation,[1]; aprepitant 50 μM,21.79
same,Mean proliferation,[1]; aprepitant 60 μM,11.7
same,Mean proliferation,[2]; aprepitant 1 μM,100.27
same,Mean proliferation,[2]; aprepitant 3 μM,98.27
same,Mean proliferation,[2]; aprepitant 5 μM,80.08
same,Mean proliferation,[2]; aprepitant 10 μM,66.40
same,Mean proliferation,[2]; aprepitant 20 μM,43.07
same,Mean proliferation,[2]; aprepitant 30 μM,29.80
same,Mean proliferation,[2]; aprepitant 40 μM,9.59
same,Mean proliferation,[2]; aprepitant 50 μM,5.78
same,Mean proliferation,[2]; aprepitant 60 μM,−1.07
same,Mean proliferation,[3]; aprepitant 1 μM,101.3
same,Mean proliferation,[3]; aprepitant 3 μM,89.28
same,Mean proliferation,[3]; aprepitant 5 μM,87.69
same,Mean proliferation,[3]; aprepitant 10 μM,64.12
same,Mean proliferation,[3]; aprepitant 20 μM,43.44
same,Mean proliferation,[3]; aprepitant 30 μM,32.09
same,Mean proliferation,[3]; aprepitant 40 μM,27.23
same,Mean proliferation,[3]; aprepitant 50 μM,3.10
same,Mean proliferation,[3]; aprepitant 60 μM,2.86
same,Mean proliferation,[4]; aprepitant 1 μM,91.72
same,Mean proliferation,[4]; aprepitant 3 μM,100.26
same,Mean proliferation,[4]; aprepitant 5 μM,67.81
same,Mean proliferation,[4]; aprepitant 10 μM,56.01
same,Mean proliferation,[4]; aprepitant 20 μM,31.24
same,Mean proliferation,[4]; aprepitant 30 μM,18.27
same,Mean proliferation,[4]; aprepitant 40 μM,14.74
same,Mean proliferation,[4]; aprepitant 50 μM,−0.95
same,Mean proliferation,[4]; aprepitant 60 μM,−1.95
